Data reported in ChEMBL document CHEMBL2440076, “New triarylpyrazoles as broad-spectrum anticancer agents: design, synthesis, and biological evaluation” (Eur J Med Chem, 2013).

Key:
Assay type in all cases: functional
A549 = assay: Growth inhibition of human A549/ATCC cells assessed as cell growth at 5X10'-7 M after 48 hrs by sulforhodamine B assay; settings: A549, 48 h, read-out: Activity
MDA-MB-435 = assay: Growth inhibition of human MDA-MB-435 cells assessed as cell growth at 5X10'-8 M after 48 hrs by sulforhodamine B assay; settings: MDA-MB-435, 48 h, read-out: Activity
RPMI-8226 = assay: Growth inhibition of human RPMI8226 cells assessed as cell growth at 5X10'-9 M after 48 hrs by sulforhodamine B assay; settings: RPMI-8226, 48 h, read-out: Activity
SNB-75 [1] = assay: Growth inhibition of human SNB75 cells assessed as cell growth at 5X10'-6 M after 48 hrs by sulforhodamine B assay; settings: SNB-75, 48 h, read-out: Activity
SF-295 = assay: Growth inhibition of human SF295 cells assessed as cell growth at 5X10'-5 M after 48 hrs by sulforhodamine B assay; settings: SF-295, 48 h, read-out: Activity
HCT-15 [2] = assay: Growth inhibition of human HCT15 cells assessed as cell growth at 5X10'-8 M after 48 hrs by sulforhodamine B assay; settings: HCT-15, 48 h, read-out: Activity
NCI-H226 = assay: Growth inhibition of human NCI-H226 cells assessed as cell growth at 5X10'-6 M after 48 hrs by sulforhodamine B assay; settings: NCI-H226, 48 h, read-out: Activity
SK-MEL-5 = assay: Growth inhibition of human SK-MEL-5 cells assessed as cell growth at 5X10'-9 M after 48 hrs by sulforhodamine B assay; settings: SK-MEL-5, 48 h, read-out: Activity
Malme-3M [3] = assay: Growth inhibition of human MALME-3M cells assessed as cell growth at 5X10'-5 M after 48 hrs by sulforhodamine B assay; settings: read-out: Activity
T47D = assay: Growth inhibition of human T47D cells assessed as cell growth at 5X10'-6 M after 48 hrs by sulforhodamine B assay; settings: read-out: Activity
UACC-257 [4] = assay: Growth inhibition of human UACC257 cells assessed as cell growth at 3X10'-8 M after 48 hrs by sulforhodamine B assay; settings: UACC-257, 48 h, read-out: Activity
KM12 = assay: Growth inhibition of human KM12 cells assessed as cell growth at 3X10'-7 M after 48 hrs by sulforhodamine B assay; settings: KM12, 48 h, read-out: Activity
[5] = Growth inhibition of human HCC2998 cells assessed as cell growth at 3X10'-8 M after 48 hrs by sulforhodamine B assay; settings: HCC 2998, 48 h, read-out: Activity
OVCAR-8 = assay: Growth inhibition of human OVCAR8 cells assessed as cell growth at 3X10'-8 M after 48 hrs by sulforhodamine B assay; settings: OVCAR-8, 48 h, read-out: Activity
Malme-3M [6] = assay: Growth inhibition of human MALME-3M cells assessed as cell growth at 3X10'-6 M after 48 hrs by sulforhodamine B assay; settings: read-out: Activity
UO-31 = assay: Growth inhibition of human UO31 cells assessed as cell growth at 3X10'-5 M after 48 hrs by sulforhodamine B assay; settings: UO-31, 48 h, read-out: Activity
UACC-62 [7] = assay: Growth inhibition of human UACC62 cells assessed as cell growth at 3X10'-7 M after 48 hrs by sulforhodamine B assay; settings: UACC-62, 48 h, read-out: Activity
[8] = Growth inhibition of human Hs 578T cells assessed as cell growth at 3X10'-5 M after 48 hrs by sulforhodamine B assay; settings: read-out: Activity
NCI-H23 = assay: Growth inhibition of human NCI-H23 cells assessed as cell growth at 3X10'-8 M after 48 hrs by sulforhodamine B assay; settings: NCI-H23, 48 h, read-out: Activity
SK-MEL-28 [9] = assay: Growth inhibition of human SK-MEL-28 cells assessed as cell growth at 3X10'-8 M after 48 hrs by sulforhodamine B assay; settings: SK-MEL-28, 48 h, read-out: Activity
TK-10 = assay: Growth inhibition of human TK10 cells assessed as cell growth at 3X10'-8 M after 48 hrs by sulforhodamine B assay; settings: TK-10, 48 h, read-out: Activity
CAKI-1 [10] = assay: Growth inhibition of human CAKI-1 cells assessed as cell growth at 3X10'-6 M after 48 hrs by sulforhodamine B assay; settings: CAKI-1, 48 h, read-out: Activity
SNB-75 [11] = assay: Growth inhibition of human SNB75 cells assessed as cell growth at 3X10'-6 M after 48 hrs by sulforhodamine B assay; settings: SNB-75, 48 h, read-out: Activity
SF-268 = assay: Growth inhibition of human SF268 cells assessed as cell growth at 3X10'-5 M after 48 hrs by sulforhodamine B assay; settings: SF-268, 48 h, read-out: Activity
HL-60(TB) = assay: Growth inhibition of human HL-60(TB) cells assessed as cell growth at 3X10'-5 M after 48 hrs by sulforhodamine B assay; settings: HL-60, 48 h, read-out: Activity
UACC-257 [12] = assay: Growth inhibition of human UACC257 cells assessed as cell growth at 3X10'-9 M after 48 hrs by sulforhodamine B assay; settings: UACC-257, 48 h, read-out: Activity
SN12C = assay: Growth inhibition of human SN12C cells assessed as cell growth at 3X10'-8 M after 48 hrs by sulforhodamine B assay; settings: read-out: Activity
M14 = assay: Growth inhibition of human M14 cells assessed as cell growth at 3X10'-5 M after 48 hrs by sulforhodamine B assay; settings: M14, 48 h, read-out: Activity
Malme-3M [13] = assay: Growth inhibition of human MALME-3M cells assessed as cell growth at 3X10'-8 M after 48 hrs by sulforhodamine B assay; settings: read-out: Activity
NCI-H322M = assay: Growth inhibition of human NCI-H322M cells assessed as cell growth at 3X10'-6 M after 48 hrs by sulforhodamine B assay; settings: read-out: Activity
HCT-15 [14] = assay: Growth inhibition of human HCT15 cells assessed as cell growth at 3X10'-7 M after 48 hrs by sulforhodamine B assay; settings: HCT-15, 48 h, read-out: Activity
UACC-62 [15] = assay: Growth inhibition of human UACC62 cells assessed as cell growth at 3X10'-8 M after 48 hrs by sulforhodamine B assay; settings: UACC-62, 48 h, read-out: Activity
SNB-19 = assay: Growth inhibition of human SNB19 cells assessed as cell growth at 3X10'-6 M after 48 hrs by sulforhodamine B assay; settings: SNB-19, 48 h, read-out: Activity
RXF 393 = assay: Growth inhibition of human RXF393 cells assessed as cell growth at 3X10'-7 M after 48 hrs by sulforhodamine B assay; settings: RXF 393, 48 h, read-out: Activity
SK-MEL-28 [16] = assay: Growth inhibition of human SK-MEL-28 cells assessed as cell growth at 3X10'-6 M after 48 hrs by sulforhodamine B assay; settings: SK-MEL-28, 48 h, read-out: Activity
CAKI-1 [17] = assay: Growth inhibition of human CAKI-1 cells assessed as cell growth at 3X10'-7 M after 48 hrs by sulforhodamine B assay; settings: CAKI-1, 48 h, read-out: Activity
ACHN = assay: Growth inhibition of human ACHN cells assessed as cell growth at 3X10'-9 M after 48 hrs by sulforhodamine B assay; settings: read-out: Activity

COc1cc(-c2nn(-c3cccc(NC(=O)Nc4cc(C(F)(F)F)cc(C(F)(F)F)c4)c3)cc2-c2ccncc2)ccc1Cl
growth at 0.5 µM (A549): 52%
growth at 0.05 µM (MDA-MB-435): 98%
growth at 0.005 µM (RPMI-8226): 99%
growth at 5 µM (SNB-75 [1]): -50%
growth at 50 µM (SF-295): -73%
growth at 0.05 µM (HCT-15 [2]): 97%
growth at 5 µM (NCI-H226): 7%
growth at 0.005 µM (SK-MEL-5): 99%
growth at 50 µM (Malme-3M [3]): -63%
growth at 5 µM (T47D): 10%

COc1cc(-c2nn(-c3cccc(NC(=O)Nc4ccc(Cl)c(C(F)(F)F)c4)c3)cc2-c2ccncc2)ccc1Cl
growth at 0.03 µM (UACC-257 [4]): 90%
growth at 0.3 µM (KM12): 95%
growth at 0.03 µM [5]: 107%
growth at 0.03 µM (OVCAR-8): 101%
growth at 3 µM (Malme-3M [6]): -16%
growth at 30 µM (UO-31): -28%
growth at 0.3 µM (UACC-62 [7]): 89%
growth at 30 µM [8]: -8%
growth at 0.03 µM (NCI-H23): 101%
growth at 0.03 µM (SK-MEL-28 [9]): 95%
growth at 0.03 µM (TK-10): 102%
growth at 3 µM (CAKI-1 [10]): 4%
growth at 3 µM (SNB-75 [11]): 24%
growth at 30 µM (SF-268): -31%
growth at 30 µM (HL-60(TB)): 6%
growth at 0.003 µM (UACC-257 [12]): 94%
growth at 0.03 µM (SN12C): 94%
growth at 30 µM (M14): -66%
growth at 0.03 µM (Malme-3M [13]): 102%
growth at 3 µM (NCI-H322M): 29%
growth at 0.3 µM (HCT-15 [14]): 95%
growth at 0.03 µM (UACC-62 [15]): 94%
growth at 3 µM (SNB-19): 19%
growth at 0.3 µM (RXF 393): 88%
growth at 3 µM (SK-MEL-28 [16]): 16%
growth at 0.3 µM (CAKI-1 [17]): 93%
growth at 0.003 µM (ACHN): 102%

O=C(Nc1cccc(-n2cc(-c3ccncc3)c(-c3ccc(Cl)c(O)c3)n2)c1)Nc1cc(C(F)(F)F)cc(C(F)(F)F)c1
growth at 0.5 µM (A549): 37%
growth at 0.05 µM (MDA-MB-435): 96%
growth at 0.005 µM (RPMI-8226): 97%
growth at 5 µM (SNB-75 [1]): -46%
growth at 50 µM (SF-295): -76%
growth at 0.05 µM (HCT-15 [2]): 93%
growth at 5 µM (NCI-H226): 6%
growth at 0.005 µM (SK-MEL-5): 104%
growth at 50 µM (Malme-3M [3]): -64%
growth at 5 µM (T47D): 20%

COc1cc(-c2nn(-c3cccc(NC(=O)Nc4ccc(Cl)c(Cl)c4)c3)cc2-c2ccncc2)ccc1Cl
growth at 0.5 µM (A549): 60%
growth at 0.05 µM (MDA-MB-435): 97%
growth at 0.005 µM (RPMI-8226): 96%
growth at 50 µM (SF-295): -42%
growth at 0.05 µM (HCT-15 [2]): 95%
growth at 5 µM (NCI-H226): 8%
growth at 0.005 µM (SK-MEL-5): 98%
growth at 50 µM (Malme-3M [3]): -43%
growth at 5 µM (T47D): 9%

O=C(Nc1cccc(-n2cc(-c3ccncc3)c(-c3ccc(Cl)c(O)c3)n2)c1)Nc1ccc(Cl)c(C(F)(F)F)c1
growth at 0.03 µM (UACC-257 [4]): 94%
growth at 0.3 µM (KM12): 96%
growth at 0.03 µM [5]: 102%
growth at 0.03 µM (OVCAR-8): 95%
growth at 3 µM (Malme-3M [6]): -32%
growth at 30 µM (UO-31): -28%
growth at 0.3 µM (UACC-62 [7]): 89%
growth at 30 µM [8]: -8%
growth at 0.03 µM (NCI-H23): 100%
growth at 0.03 µM (SK-MEL-28 [9]): 97%
growth at 0.03 µM (TK-10): 103%
growth at 3 µM (CAKI-1 [10]): -9%
growth at 30 µM (SF-268): -20%
growth at 30 µM (HL-60(TB)): 6%
growth at 0.003 µM (UACC-257 [12]): 97%
growth at 0.03 µM (SN12C): 94%
growth at 30 µM (M14): -39%
growth at 0.03 µM (Malme-3M [13]): 94%
growth at 3 µM (NCI-H322M): 9%
growth at 0.3 µM (HCT-15 [14]): 84%
growth at 0.03 µM (UACC-62 [15]): 95%
growth at 3 µM (SNB-19): 9%
growth at 0.3 µM (RXF 393): 69%
growth at 3 µM (SK-MEL-28 [16]): 1%
growth at 0.3 µM (CAKI-1 [17]): 87%
growth at 0.003 µM (ACHN): 97%

COc1cc(-c2nn(-c3cccc(NC(=O)c4cccc(C(F)(F)F)c4)c3)cc2-c2ccncc2)ccc1Cl
growth at 0.5 µM (A549): 91%
growth at 0.05 µM (MDA-MB-435): 100%
growth at 0.005 µM (RPMI-8226): 98%
growth at 5 µM (SNB-75 [1]): -2%
growth at 50 µM (SF-295): -26%
growth at 0.05 µM (HCT-15 [2]): 96%
growth at 5 µM (NCI-H226): 18%
growth at 0.005 µM (SK-MEL-5): 98%
growth at 50 µM (Malme-3M [3]): 29%
growth at 5 µM (T47D): 36%

COc1cc(-c2nn(-c3cccc(NC(=O)Nc4cccc(C(F)(F)F)c4)c3)cc2-c2ccncc2)ccc1Cl
growth at 0.5 µM (A549): 62%
growth at 0.05 µM (MDA-MB-435): 97%
growth at 0.005 µM (RPMI-8226): 98%
growth at 5 µM (SNB-75 [1]): -4%
growth at 50 µM (SF-295): -77%
growth at 0.05 µM (HCT-15 [2]): 94%
growth at 5 µM (NCI-H226): 7%
growth at 0.005 µM (SK-MEL-5): 99%
growth at 50 µM (Malme-3M [3]): -51%
growth at 5 µM (T47D): 18%

O=C(Nc1cccc(-n2cc(-c3ccncc3)c(-c3ccc(Cl)c(O)c3)n2)c1)c1ccc(N2CCOCC2)c(C(F)(F)F)c1
growth at 0.5 µM (A549): 92%
growth at 0.05 µM (MDA-MB-435): 93%
growth at 0.005 µM (RPMI-8226): 98%
growth at 5 µM (SNB-75 [1]): 20%
growth at 50 µM (SF-295): -59%
growth at 0.05 µM (HCT-15 [2]): 99%
growth at 5 µM (NCI-H226): 100%
growth at 0.005 µM (SK-MEL-5): 101%
growth at 50 µM (Malme-3M [3]): -40%
growth at 5 µM (T47D): 84%
